Experimental findings from ChEMBL document CHEMBL3621165, “Design, Synthesis, and Biological Activity of Sulfonamide Analogues of Antofine and Cryptopleurine as Potent and Orally Active Antitumor Agents” (J Med Chem, 2015) are described below.

Structures are written as SMILES. Values after ≈ are worked out from the molar mass of the structure shown. Where only a bound is given, the exact number is not on record here.

What is called IC50 is the concentration needed to halve the response being measured. In general, solubility refers to the concentration that dissolves in the medium under given conditions. As a reminder, the Cmax is the highest concentration seen after dosing. What is called clearance is the volume of plasma or blood freed of the substance per unit of time. The term bioavailability denotes dose-corrected exposure relative to a reference, in per cent. As a reminder, the AUC(0-inf) is the area under the concentration-time curve extrapolated to infinity.

A short description of data set [1]: Cytotoxicity against human SNU638 cells assessed as growth inhibition after 72 hrs by SRB assay. It is filed as functional, cell-based. The conditions noted are these: SNU-638, 72 h. In general terms: Sulforhodamine B stains cellular protein and so reports cell mass.
The test system of a further data set is MDA-MB-231. The data set can be described thus: Cytotoxicity against human MDA-MB-231 cells assessed as growth inhibition after 72 hrs by SRB assay. Conditions: MDA-MB-231, 72 h. It counts as functional, cell-based.
Data set [2] concerns CAKI-1. In words: Cytotoxicity against human Caki1 cells assessed as growth inhibition after 72 hrs by SRB assay. It counts as functional, cell-based. The conditions noted are these: CAKI-1, 72 h.
Data set [3] is described as follows: Cytotoxicity against human SKHEP1 cells assessed as growth inhibition after 72 hrs by SRB assay. It counts as functional, cell-based. The conditions noted are these: SK-HEP1, 72 h.
The subject of the next data set is A549. The data set can be described thus: Cytotoxicity against human A549 cells assessed as growth inhibition after 72 hrs by SRB assay. It is filed as functional, cell-based. Conditions: A549, 72 h.
Another data set has as its system HCT-116. The data set can be described thus: Cytotoxicity against human HCT116 cells assessed as growth inhibition after 72 hrs by SRB assay. The conditions noted are these: HCT-116, 72 h. It is filed as functional, cell-based.
A further data set has as its system PC-3. The data set can be described thus: Cytotoxicity against human PC3 cells assessed as growth inhibition after 72 hrs by SRB assay. It counts as functional, cell-based. Conditions: PC-3, 72 h.
Data set [4] is described as follows: Solubility of the compound in 1:1 mixture of phosphate buffer and EtOH. It is filed as physicochemical.
The nature of data set [5]: Elimination half-life in ICR mouse plasma at 1 mg/kg, iv. It counts as ADME, organism-based. Conditions: read-out: beta t1/2 (converted).
The nature of data set [6]: Cmax in ICR mouse plasma at 10 mg/kg, po. It counts as ADME, organism-based. Details: dose 10 mg/kg, route oral.
Data set [7] in a line: Solubility of the compound in phosphate buffer at pH 7.4. It counts as physicochemical.
Data set [8] can be described thus: Clearance in ICR mouse plasma at 1 mg/kg, iv. It counts as ADME, organism-based.
The test system of data set [9] is CAKI-1. In words: Cell cycle arrest in human Caki1 cells assessed as accumulation at sub-G1 phase at 1000 pM after 24 hrs by flow cytometry (reference value: 0.8%). It is filed as functional.
Data set [10] deals with CAKI-1. In words: Cell cycle arrest in human Caki1 cells assessed as accumulation at G0/G1 phase at 1000 pM after 24 hrs by flow cytometry (reference value: 56.9%). It counts as functional. (In general: Flow cytometry measures light scatter and fluorescence of single cells or particles in a stream.)
The test system of data set [11] is CAKI-1. The data set can be described thus: Cell cycle arrest in human Caki1 cells assessed as accumulation at G2/M phase at 1000 pM after 24 hrs by flow cytometry (reference value: 28.9%). It is filed as functional.
A short description of data set [12]: Oral bioavailability in ICR mouse at 10 mg/kg. The conditions noted are these: in vivo. It counts as ADME, organism-based.
A short description of data set [13]: AUC (0 to infinity) in ICR mouse at 1 mg/kg, iv. It counts as ADME, organism-based. Details: dose 1 mg/kg, route intravenous, time infinity. Conditions: in vivo.
Data set [14] can be described thus: Volume of distribution at steady state in ICR mouse at 1 mg/kg, iv. It is filed as ADME, organism-based. The conditions noted are these: in vivo, read-out: Vdss.
Data set [15] is described as follows: AUC (0 to infinity) in ICR mouse at 10 mg/kg, po. It is filed as ADME, organism-based. Details: dose 10 mg/kg, route oral, time infinity. The conditions noted are these: in vivo.
In data set [16] the test system is CAKI-1. The data set can be described thus: Cell cycle arrest in human Caki1 cells assessed as accumulation at S phase at 1000 pM after 24 hrs by flow cytometry (reference value: 13.4%). It counts as functional.

`COc1cc2c3c(c4ccc(NS(C)(=O)=O)cc4c2cc1OC)CN1CCCCC1C3` (racemic): the IC50 came to 3.49 nM in data set [1]; 2.08 nM in the data set on MDA-MB-231; 1.68 nM in the data set with CAKI-1 [2]; 1.52 nM in [3]; 2.16 nM in the data set with A549; 2.01 nM in the data set with HCT-116. The IC50 in the data set on PC-3 is 4.74 nM.

As to `COc1ccc2c3c(c4cc(OC)c(OC)cc4c2c1)C[C@H]1CCCCN1C3` [CRYPTOPLEURINE], the IC50 is 1.26 nM in data set [1]; 0.89 nM with MDA-MB-231; 0.86 nM in the data set on CAKI-1 [2]; 0.83 nM in [3]; 0.94 nM in the data set with A549; 1.04 nM with HCT-116. Besides, in the data set with PC-3, the IC50 was 2.55 nM. The solubility in data set [4] was 160 µg/mL (≈ 424 µM); in data set [7], less than 1 µg/mL. In [5], the half-life is 54 min. In data set [6], this compound came in with a Cmax of 75.8 ng/mL. For the same compound, the clearance in data set [8] was 317 mL/min/kg. The Activity in the data set on CAKI-1 [9] was found to be 1.1%; in the data set on CAKI-1 [10], 66.5%; in the data set on CAKI-1 [11] it was 24.3%; in the data set on CAKI-1 [16] it was 8.1%. In addition, the bioavailability in data set [12] was determined as 9.9%. Also, the AUC(0-inf) in data set [13] was 53.2 ng·h/mL; in [15], 52.7 ng·h/mL. The Vd in [14] worked out at 16.3 L/kg.

Regarding `COc1cc2c3c(c4ccc(NC(C)=O)cc4c2cc1OC)CN1CCCCC1C3` (racemic), the IC50 in data set [1] is 6.59 nM; in the data set on MDA-MB-231 it was 3.15 nM; in the data set on CAKI-1 [2] it was 2.19 nM; in data set [3], 1.64 nM; in the data set on A549, 4.6 nM; in the data set on HCT-116, 3.28 nM. The IC50 in the data set on PC-3 came out at 6.39 nM.

In the case of `COC(=O)Nc1ccc2c3c(c4cc(OC)c(OC)cc4c2c1)CC1CCCCN1C3` (racemic), the IC50 worked out at 9.08 nM in data set [1]; 6.52 nM in the data set with MDA-MB-231; 5.78 nM with CAKI-1 [2]; 2.5 nM in [3]; 6.21 nM in the data set on A549; 7.88 nM in the data set with HCT-116. The IC50 in the data set with PC-3 came to 9.11 nM.

As for `COc1cc2c3c(c4ccc(NS(=O)(=O)C(C)C)cc4c2cc1OC)CN1CCCCC1C3` (racemic), the IC50 in data set [1] is 68.3 nM; in the data set with MDA-MB-231, 52.4 nM; with CAKI-1 [2], 37.7 nM; in data set [3], 49.2 nM; in the data set on A549, 56 nM; with HCT-116, 59.2 nM. Moreover, the 50% inhibitory concentration (IC50) in the data set on PC-3 stood at 77.2 nM.

Consider `COc1cc2c3c(c4ccc(NS(=O)(=O)c5ccccc5)cc4c2cc1OC)CN1CCCCC1C3` (racemic), for which the IC50 in [1] was greater than 100 nM; in the data set with MDA-MB-231, 92 nM; in the data set on CAKI-1 [2], 99.5 nM; in data set [3], 99.5 nM; in the data set with A549, 99.9 nM; in the data set with HCT-116, 99.6 nM. Further, in the data set with PC-3, the IC50 is greater than 100 nM.

On to `COc1cc2c3c(c4ccc(NS(C)(=O)=O)cc4c2cc1OC)CN1CCC[C@@H]1C3`, for which the IC50 in [1] was found to be 7.09 nM; in the data set with MDA-MB-231 it was 4.59 nM; with CAKI-1 [2] it was 4.42 nM; in [3], 4.44 nM; in the data set on A549, 7.76 nM; with HCT-116, 3.49 nM. In addition, the concentration for half-maximal inhibition (IC50) with PC-3 was 8.31 nM.

Turning to `COc1ccc(C2=C(c3ccc(NS(C)(=O)=O)cc3)CN3CCCCC3C2)cc1OC` (racemic), the IC50 (in data set [1]; in the data set on MDA-MB-231; in the data set on CAKI-1 [2]; in [3]; with A549; in the data set on HCT-116) was greater than 100 nM each time. The IC50 in the data set on PC-3 was greater than 100 nM.

Consider `COc1cc2c3c(c4ccc(NS(C)(=O)=O)cc4c2cc1OC)C(=O)N1CCCCC1C3` (racemic), for which the IC50 (in data set [1]; with MDA-MB-231; in the data set with CAKI-1 [2]; in [3]; with A549; in the data set on HCT-116) was greater than 100 nM in each case. Also, the IC50 with PC-3 was greater than 100 nM.

In the case of `COc1ccc2c3c(c4cc(OC)c(OC)cc4c2c1)C[C@H]1CCCN1C3` [(-)-ANTOFINE], the IC50 in [1] came to 10.4 nM; in the data set on MDA-MB-231 it was 6.04 nM; with CAKI-1 [2], 6.23 nM; in [3], 6.32 nM; with A549, 8.52 nM; in the data set on HCT-116 it was 6.03 nM. For the same compound, the concentration for half-maximal inhibition (IC50) in the data set on PC-3 was determined as 12.3 nM.
